{"source": "patent US12649748B2", "about": "“Wee1 inhibitor and use thereof” (JIANGSU TASLY DIYI PHARMACEUTICAL CO., LTD., priority 2021, dated 2026)", "type_in_all_cases": "in vitro ADME", "key": {"[1]": {"experiment": "Metabolic stability of liver microsomes in vitro (human)", "conditions": "read-out: Human T1/2/min", "method": "Microsomes were taken out from the −80° C. refrigerator, rapidly melted in a 37° C. water bath and placed on ice until ready to use. The test article was diluted with DMSO to prepare a 10 mM stock solution, and then diluted with acetonitrile to a 0.5 mM secondary stock solution. The microsomes were diluted to 0.75 mg/ml using Buffer C; the secondary stock solution was then added to a final concentration of 1.5 μM of compound as working solution, based on n=2, 5 time points, 350 μL of each compound was prepared and placed on ice prior to use. NADPH was diluted with Buffer C to a working solution of 6 mM for the starter solution. An acetonitrile solution containing an internal standard was prepared as the precipitant, and Verapamil-HCl was chosen as the internal standard at a concentration of 4 ng/ml.\nA round-bottom well plate was taken, noted as the reaction plate, and the prepared working solution for each compound was dispensed into the well plate according to the number of replicates and time points (0 h samples are also added to the reaction plate), 30 μL/well; the plate was incubated at 37° C. for 10 min. A separate plate with pointed bottom wells, noted as a precipitation plate, was added with 135 μL precipitant per well; 0 h samples were transferred to the plate after 10 min incubation and 15 μL of starter solution was added; the plate was placed on ice before centrifugation.\nThe diluted starter solution was added in sufficient quantity to the dispensing plate to facilitate the multichannel pipette aspiration operation.\nThe reaction was carried out on a warm incubation shaker and 15 μL of starter solution/sample is added to the plate using a multichannel pipette. The reaction was mixed with a slight shake to initiate the reaction, which was accurately timed and recorded using a timer;\nAfter the reaction time had elapsed, all the solution in the plate was aspirated using the multichannel pipette and added to the precipitation plate to terminate the reaction at that point in time. After all reactions had been terminated, the plates were shaken for ten minutes on a plate shaker at 600 rpm to precipitate the protein. The plate was centrifuged at 4° C. for 15 minutes at maximum rpm. 80 μL of supernatant was taken, 320 μL of pure water was added and mixed for LC-MS analysis."}, "[2]": {"experiment": "Plasma protein binding (PPB), human", "conditions": "5 h dialysis, read-out: Plasma protein binding rate (%) Human (converted)", "method": "Sample preparation: The compound was dissolved in DMSO to a stock solution of 10 mM, then the compound was diluted with PBS to a secondary stock solution of 0.02 mM, and then the above 0.02 mM was diluted to 1 μM using blank plasma, which was the sample to be incubated.\nDialysis set-up preparation: 400 μL of blank PBS was first added to the white wells of the equilibrated dialysis plate and 200 μL of the configured plasma sample was added to the red wells, and the dialysis plate was sealed with a sealing film.\nRecovery plate preparation: Two 96-well deep-well plates, labelled T0 and T5, were prepared and all plasma samples were added at n=2. 300 μL of acetonitrile (Verapamil-HCl, 4 ng/mL) was added directly to the TO plate, followed by 50 μL of blank PBS mix well for 5 min and left to stand in a 4° C. refrigerator until the end of the incubation.\nExperimental Operation: The dialysis device and the T5 plate were incubated together for 5 h in a microplate thermostatic shaker (37° C., using 300 rpm or minimum speed). At the end of the incubation, 300 μL of acetonitrile (Verapamil-HCl, 4 ng/mL) was added and 50 μL of PBS solution was added. At the end of the dialysis incubation, a new 96-well deep well plate was taken. […]"}, "[3]": {"experiment": "Membrane permeability study (Caco-2)", "conditions": "human; for Papp A→B at 90 min, 10 µM / Papp B→A at 90 min, 10 µM: pH 7.4, Caco-2, 10 μM; for Papp A→B at 90 min, 10 µM: A to B; for Papp B→A at 90 min, 10 µM: B to A; for efflux ratio at 90 min, 10 µM: Caco-2, pH 7.4, read-out: Efflux Ration", "method": "Caco-2 cells were purchased from the […] (Rockville, MD). The cell culture medium was modified Eagle's medium (MEM) containing 10% inactivated fetal bovine serum and 1% non-essential amino acids. Cells were inoculated on polycarbonate filter membranes (Cat no. 3396) and incubated at 37° C. in a 5% CO2 incubator.\nThe cells were incubated for 21-28 days after inoculation for transport experiments and the apparent permeability (Papp) of Lucifer Yellow was used to characterize and verify the compactness of the cell monolayer. A stock solution of 10 mM was prepared by dissolving the compound in DMSO and diluted using Hanks Balanced Salt Solution (HBSS, Invitrogen, Cat #14025-092) containing 25 mM HEPES (pH 7.4) to obtain the working solution. A 10 μM working solution of the compound to be tested was added to the apical side and basolateral side of Caco-2 and incubated at 37° C. for 90 min. After the incubation, dilute the samples on the apical side and basolateral side, and the concentrations of compounds on the apical and basolateral sides were detected by LC-MS/MS, and the concentrations of the compounds were quantified by standard curve."}, "CYP2C19": {"molecular_target": "CYP2C19 (Homo sapiens, UniProt P33261)", "sequence (P33261 whole entry, canonical isoform)": "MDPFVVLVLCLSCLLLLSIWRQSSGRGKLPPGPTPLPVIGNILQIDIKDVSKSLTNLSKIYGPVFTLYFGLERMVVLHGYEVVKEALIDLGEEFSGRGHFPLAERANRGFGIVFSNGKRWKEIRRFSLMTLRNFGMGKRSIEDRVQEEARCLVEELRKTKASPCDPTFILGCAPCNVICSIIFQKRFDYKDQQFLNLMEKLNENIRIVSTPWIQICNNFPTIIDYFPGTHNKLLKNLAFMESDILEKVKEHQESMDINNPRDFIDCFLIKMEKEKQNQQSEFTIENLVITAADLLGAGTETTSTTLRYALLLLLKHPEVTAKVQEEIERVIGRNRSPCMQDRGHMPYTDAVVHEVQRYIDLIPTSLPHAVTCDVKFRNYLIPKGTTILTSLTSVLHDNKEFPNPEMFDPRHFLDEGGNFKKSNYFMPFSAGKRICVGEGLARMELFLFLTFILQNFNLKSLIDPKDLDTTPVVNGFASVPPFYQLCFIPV", "experiment": "Inhibition of cytochrome P450, CYP2C19", "conditions": "CYP2C19 enzyme, pH 7.4, probe EOMCC, read-out: CYP inhibition/% 2C19; for inhibition at 30 min, 1 µM: compound concentration 1 μM; for inhibition at 30 min, 10 µM: compound concentration 10 μM", "method": "Enzymatic experiments were performed to quantify the inhibition of CYP450 enzyme activity of each isoform of CYP450 by small molecule inhibitors through fluorescence generated by the oxidation of the substrate by cytochrome P450. […] The Solution B composition used for the experiment was: 40 U/mL G6PDH (Sigma-aldrich, Cat #G6378). The substrate mix was 0.05× Solution A, 0.01× Solution B, 50 mM Potassium Phosphate, 0.01 mM BOMCC/0.01 mM EOMCC/0.001 mM DBOMF. […] The data were analyzed and processed using GraphPad Prism 6 software to obtain IC50 values."}}, "data": [{"smiles": "C=CCn1c(=O)c2cnc(Nc3ccc(N4CCN(C)CC4)cc3)nc2n1-c1cccc(C(C)(C)O)n1", "note": "[AZD-1775, reference compound]", "values": [{"measurement": "half-life at 1 µM", "setting": "[1]", "value": "> 2", "unit": "h"}, {"measurement": "fraction unbound at 5 h, 1 µM", "setting": "[2]", "value": 0.36}, {"measurement": "Papp A→B at 90 min, 10 µM", "setting": "[3]", "value": 14.5, "unit": "×10⁻⁶ cm/s"}, {"measurement": "Papp B→A at 90 min, 10 µM", "setting": "[3]", "value": 35.3, "unit": "×10⁻⁶ cm/s"}]}, {"smiles": "Cc1cc(Nc2ncc3cnn(-c4cccc(N=S(C)(C)=O)n4)c3n2)ccc1N1CCC(N(C)C)CC1", "note": "[Compound 14]", "values": [{"measurement": "half-life at 1 µM", "setting": "[1]", "value": "> 2", "unit": "h"}, {"measurement": "efflux ratio at 90 min, 10 µM", "setting": "[3]", "value": 3.54}, {"measurement": "Papp A→B at 90 min, 10 µM", "setting": "[3]", "value": 5.86, "unit": "×10⁻⁶ cm/s"}, {"measurement": "Papp B→A at 90 min, 10 µM", "setting": "[3]", "value": 20.8, "unit": "×10⁻⁶ cm/s"}]}, {"smiles": "Cc1cc(Nc2ncc3cnn(-c4cccc(N=S(C)(C)=O)n4)c3n2)ccc1N1CCN(C)CC1", "note": "[Compound 16]", "values": [{"measurement": "half-life at 1 µM", "setting": "[1]", "value": "> 2", "unit": "h"}, {"measurement": "efflux ratio at 90 min, 10 µM", "setting": "[3]", "value": 2.51}, {"measurement": "Papp A→B at 90 min, 10 µM", "setting": "[3]", "value": 8.07, "unit": "×10⁻⁶ cm/s"}, {"measurement": "Papp B→A at 90 min, 10 µM", "setting": "[3]", "value": 20.3, "unit": "×10⁻⁶ cm/s"}]}, {"smiles": "CS(C)(=O)=Nc1cccc(-n2ncc3cnc(Nc4ccc(N5CCOCC5)cc4)nc32)n1", "note": "[Compound 6]", "values": [{"measurement": "inhibition at 30 min, 1 µM", "setting": "CYP2C19", "value": -16.5, "unit": "%"}, {"measurement": "inhibition at 30 min, 10 µM", "setting": "CYP2C19", "value": -8.3, "unit": "%"}]}, {"smiles": "CN1CCN(c2ccc(Nc3ncc4cnn(-c5cccc(N=S(C)(C)=O)n5)c4n3)cc2)CC1", "note": "[Compound 1]", "values": [{"measurement": "half-life at 1 µM", "setting": "[1]", "value": "> 2", "unit": "h"}, {"measurement": "fraction unbound at 5 h, 1 µM", "setting": "[2]", "value": 0.144}, {"measurement": "efflux ratio at 90 min, 10 µM", "setting": "[3]", "value": 4.67}, {"measurement": "Papp A→B at 90 min, 10 µM", "setting": "[3]", "value": 8.93, "unit": "×10⁻⁶ cm/s"}, {"measurement": "Papp B→A at 90 min, 10 µM", "setting": "[3]", "value": 41.7, "unit": "×10⁻⁶ cm/s"}, {"measurement": "inhibition at 30 min, 1 µM", "setting": "CYP2C19", "value": 3.3, "unit": "%"}, {"measurement": "inhibition at 30 min, 10 µM", "setting": "CYP2C19", "value": 10.7, "unit": "%"}]}, {"smiles": "CN1CCN(c2ccc(Nc3ncc4cnn(-c5cccc(C(C)(C)O)n5)c4n3)cc2)CC1", "note": "[Compound 2]", "values": [{"measurement": "half-life at 1 µM", "setting": "[1]", "value": "> 2", "unit": "h"}, {"measurement": "inhibition at 30 min, 1 µM", "setting": "CYP2C19", "value": 3.8, "unit": "%"}, {"measurement": "inhibition at 30 min, 10 µM", "setting": "CYP2C19", "value": 9.8, "unit": "%"}]}]}
